Experimental data taken from PubChem BioAssay (NCI).
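GI50 marks 50% less growth. Definition used: TGI = concentration required for complete inhibition of growth.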

Key:
Assay in all cases: inhibition of tumour cell growth, NCI panel, 384-well format
PC-3 prostate = system: PC-3 prostate
MDA-MB-468 breast = system: MDA-MB-468 breast
BT-549 breast = system: BT-549 breast
UACC-257 melanoma = system: UACC-257 melanoma
SK-MEL-2 melanoma = system: SK-MEL-2 melanoma
SF-539 CNS = system: SF-539 CNS
SN12C renal = system: SN12C renal
EKVX NSCLC = system: EKVX NSCLC
SR leukemia = system: SR leukemia
MALME-3M melanoma = system: MALME-3M melanoma
OVCAR-8 ovarian = system: OVCAR-8 ovarian
OVCAR-5 ovarian = system: OVCAR-5 ovarian
RXF 393 renal = system: RXF 393 renal

`CC(C)C[C@H](NC(=O)[C@H](Cc1ccccc1)NC(=O)c1cnccn1)B(O)O` gave a GI50 (PC-3 prostate) of less than 0.01 µM, a TGI (PC-3 prostate) of less than 0.0137 µM and a GI50 (MDA-MB-468 breast) of less than 0.01 µM. For the same compound, the TGI (MDA-MB-468 breast) was less than 0.01 µM, the GI50 (BT-549 breast) was less than 0.01 µM and the TGI (BT-549 breast) was less than 0.01 µM. The GI50 (UACC-257 melanoma) was less than 0.01 µM, the TGI (UACC-257 melanoma) was less than 0.01 µM and the GI50 (SK-MEL-2 melanoma) was less than 0.01 µM. For the same compound, the TGI (SK-MEL-2 melanoma) was less than 0.01 µM, the GI50 (SF-539 CNS) was less than 0.01 µM and the TGI (SF-539 CNS) was less than 0.01 µM. The GI50 (SN12C renal) was less than 0.0108 µM, the TGI (SN12C renal) was 0.0189 µM and the GI50 (EKVX NSCLC) was less than 0.01 µM. It also gave a TGI (EKVX NSCLC) of less than 0.019 µM, a GI50 (SR leukemia) of less than 0.01 µM and a TGI (SR leukemia) of less than 0.01 µM. It also gave a GI50 (MALME-3M melanoma) of less than 0.01 µM, a TGI (MALME-3M melanoma) of less than 0.01 µM and a GI50 (OVCAR-8 ovarian) of less than 0.0111 µM. For the same compound, the TGI (OVCAR-8 ovarian) was less than 0.0158 µM, the GI50 (OVCAR-5 ovarian) was less than 0.01 µM and the TGI (OVCAR-5 ovarian) was less than 0.0163 µM. It also gave a GI50 (RXF 393 renal) of less than 0.01 µM and a TGI (RXF 393 renal) of less than 0.01 µM.
